Reference: paper PMC12566971, “Polyprenylated Acylphloroglucinols from Hypericum rochelii and Hypericum olympicum—Cytotoxic Effects on Non-Tumorigenic Cell Lines and Antibacterial Potential” (Pharmaceuticals, 2025)
≈ marks a conversion by molar mass, not a printed value. Where “and” joins values, the source holds several entries; their conditions need not be identical. Equal entries are not always repeated.

What was measured:
[1] = test system: Methicillin-Resistant S. aureus (MRSA); assay: MIC and MBC evaluation (broth microdilution, agar plate assay); format: cell-based, Staphylococcus aureus
Protocol: (§1) The MIC and MBC assessment on the pathogenic bacteria and the candidate probiotic lactic acid bacteria was carried out by the broth microdilution assay (BMD) and the agar plate assay, respectively, as described in [4]. The metabolic (dehydrogenase) activity of the lactic acid bacteria was assessed as described in [4].
(§2) P. aeruginosa PAO1 ATCC 15692 was purchased from the American Type Cell Culture Collection (ATCC, Manassas, VA, USA). S. mutans DSM 20523 was bought from the German Collection of Microorganisms and Cell Cultures (DSMZ GmbH, Braunschweig, Germany). All other bacteria and strains were purchased as described in [4].

Enterococcus faecalis = assay: as above; format: cell-based
Protocol: as §1, §2

Staphylococcus aureus = assay: as above; format: cell-based
Protocol: as §1, §2

Streptococcus mutans = assay: as above; format: cell-based
Protocol: as §1, §2

Streptococcus pyogenes [2] = assay: as above; format: cell-based
Protocol: as §1, §2

S. aureus = assay: Time kill assay; format: cell-based, Staphylococcus aureus
Protocol: A time kill assay was performed according to the modified protocol of Sendi and Ruppen, 2015 [137]. […] From these dilutions, 25 µL was seeded in brain heart infusion agar in a well of a 12-well plate. An untreated control was plated in the same way. Then, the bacterial suspension (treated and untreated) was placed in an incubator (MLW Kombinat, Leipzig, Germany) at 37 °C. Again, 25 µL of it was taken for seeding after 1, 2, 3, 4, 6, and 24 h, which equals a total of 7 time points. After 16–24 h of incubation, the colonies in the seeded plates from all dilutions were counted, and the number of colony-forming units (CFU) per mL, or in other words, bacteria per mL, was calculated.

[3] = test system: human total cytochrome P450 (CYP450); assay: ELISA for total cytochrome P450 in HEPG2 cells; format: in vitro ADME; conditions: HEPG2, 24 h, concentrations inhibiting S. aureus
Protocol: (§3) The effect on CYP450 was tested using the ELISA method on the HEPG2 liver cell line. As mentioned, it has weak or absent expression of the CYP450 superfamily, e.g., CYP3A4, CYP1A2, etc., and that low basal activity makes it a good model for studies of CYP inducers. In addition, these cells have the advantage of immortalization due to their cancerous nature. The standard curves after the two ELISA tests (Figure S7) were prepared as a standard dose–response curve, also called a four-parameter logistic (4-PL) curve.
Human total cytochrome P450 was examined using the Human Cytochrome P450 ELISA Kit (MBS705506, MyBioSource, San Diego, CA, USA) according to the manufacturer’s instructions. HEPG2 cells were seeded at a concentration of 100,000 cells/mL in a 6-well plate, and the overnight culture was treated with selected Hypericum agents. After 24 h of exposure, the protocol was performed according to the kit instructions.
The test principle uses the sandwich quantitative enzyme immunoassay technique. A microplate was pre-coated with an antibody specific for cytochrome P450. Standards and samples were pipetted into the wells, and if cytochrome P450 molecules were present, they were bound by the immobilized antibody. […] The color development was stopped, and its intensity was measured on a microplate reader ELx800 (BioTek Instruments, Inc., Winooski, VT, USA).

human CYP450 3A4 isoform = assay: ELISA for cytochrome P450 3A4 in HEPG2 cells; format: in vitro ADME
Protocol: as §3
The effect on human cytochrome P450 3A4, the major member of the CYP450 superfamily of enzymes, which is predominantly found in the liver and metabolizes approximately half of the drugs metabolized by CYP450 enzymes, was assayed using the CYP3A4 ELISA Kit (DL-CYP3A4-Hu, DLdevelop, Kelowna, BC, Canada). Sample selection and initial preparation were as for the total cytochrome ELISA. The experiment was performed according to the manufacturer’s instructions. This assay is a sandwich enzyme immunoassay based on the binding of CYP3A4 in standards and samples to a biotin-conjugated antibody specific for CYP3A4. […] The reaction was stopped by adding sulfuric acid solution, and the plate was read at 450 nm on a microplate reader ELx800 (BioTek Instruments, Inc.). The CYP3A4 concentration was determined by comparing the O.D. of the samples with the standard curve.

rabbit skin = conditions: in vivo
Protocol: Dermal toxicological screening of the chosen two non-toxic active substances was performed on animals. This was carried out according to the European standard ISO 10993-10: 2010 (E): Biological evaluation of medical devices, Part 10 Skin irritation and sensitization tests (6. […] The animal study protocol was approved by the opinion No. 148 of 09.04.2019 of the Ethics Committee of the Bulgarian Food Safety Agency of the Ministry of Agriculture, Food, and Forestry. The Permit to work with experimental rabbits No. 232 was valid until 11.04.2024 and issued on the basis of Article 155, paragraph 7, of the Veterinary Medical Activity Act. The albino rabbits were cared for as specified in ISO 10993-2 (withdrawn; superseded by ISO 10993-2:2022) and Ordinance No. 20 (State Gazette of Bulgaria, No. 87, 9 November 2012). Four square test sites were made on the back of the rabbit by clipping the fur. The samples were applied to 2 of them, while the other 2 were used as a positive control (10–20% SDS) and a negative control (the buffer in which the agents were diluted, i.e., PBS). The exposure time was 4 h, and at the end of it the appearance was checked for erythema (redness) and edema. Additional inspections were performed at hours 24, 48, and 72.

Streptococcus pyogenes [4] = conditions: ref [4],[29]; cited from earlier work
[5] = bactericidal if ≤ 4, bacteriostatic if > 4

Compound: CC(C)=CCCC1(C)C(CC=C(C)C)CC2C(=O)C1(C(=O)C(C)C)C(=O)C(CC=C(C)C)=C2O (stereo not drawn) [Olympiforin B]
- MBC ([1]; Staphylococcus aureus, MRSA): 68 µg/mL and 121 µM
- MBC/MIC ratio, MRSA [1, 5]: 68
- MBC (Enterococcus faecalis; Enterococcus faecalis): 55 µg/mL and 98 µM
- MBC/MIC ratio, E. faecalis (Enterococcus faecalis; [5]): 14
- MBC (Staphylococcus aureus; Staphylococcus aureus, read-out: Minimal bactericidal concentration (MBC), Staphylococcus aureus): 19 µg/mL and 34 µM
- MBC/MIC ratio, S. aureus (Staphylococcus aureus; [5]): 19
- MBC (Streptococcus mutans; Streptococcus mutans, read-out: MBC for S. mutans): 6.25 µg/mL and 11.1 µM
- MIC (Streptococcus mutans; Streptococcus mutans, read-out: MIC for S. mutans): 3 µg/mL and 5.57 µM
- MBC/MIC ratio, Streptococcus mutans (Streptococcus mutans; [5]): 2
- MBC (Streptococcus pyogenes [2]; Streptococcus pyogenes): 60 µg/mL and 107 µM
- MBC/MIC ratio, S. pyogenes (Streptococcus pyogenes [2]; [5]): 15
- Bacteria remaining in time kill assay (S. aureus; 1/2 × MBC, 24 h): 302,000 CFU/mL
- Outcome of time kill assay (S. aureus; MBC concentration, by 24 h): killed all bacteria
- Induction of total CYP450 [3]: hardly induce
- CYP450 3A4, Mean Diff. Co vs. agent (Tukey) (human CYP450 3A4 isoform; 2×MIC, control minus treated): 0.000325
- Induction of CYP450 3A4 (human CYP450 3A4 isoform; HEPG2, 24 h, concentrations inhibiting S. aureus): hardly induce
- Skin irritation on rabbits (rabbit skin): do not cause skin toxicity
- MIC on bacteria, S. pyogenes (Streptococcus pyogenes [4]): 4 µg/mL (≈ 8.53 µM)
